Patent US20160207930A1 (LEO PHARMA A/S, priority 2013, published 2016)

Legend:
[1] = biological target: T1, NK1 Receptor (Homo sapiens, UniProt P25103); assay: NK1 receptor mediated intracellular [Ca2+] mobilization in U251 MG cells using FLIPR; format: cell-based; conditions: antagonism of Substance P (EC80), Fluo-4, read-out: NK1R mediated intracellular [Ca^2+] mobilization IC 50
T1 construct: Measurement of NK1 Receptor Mediated Intracellular [Ca^2+]; Mobilization in U251 MG Cells Using FLIPR; endogenous in cells; host or cells: U251 MG cells
Method: Measurement of NK1 Receptor Mediated Intracellular [Ca^2+] Mobilization in U251 MG Cells Using FLIPR
U251 MG cells were seeded into black walled clear-bottom 384-well plates (Greiner Bio-One GmbH, Frickenhausen, Germany) at a density of 15,000 cells/well in 50 μl culture medium and cultured overnight in a 37° C. 5% CO2 incubator. The cells were then loaded with the calcium sensitive dye Fluo-4 (Invitrogen) at 1 μM in buffer, containing 0.04% Pluronic F-127 (Sigma-Aldrich), and 2.5 mM probenecid (Sigma-Aldrich) for 60 min in a humidified atmosphere of 5% CO2. Thereafter, cells were washed three times in washing buffer containing 20 mM HEPES and 2.5 mM probenecid pH 7.3. Serial dilutions of test compounds in assay buffer containing 2% dimethyl sulfoxide (final concentration in the cell plate is 0.5% DMSO) and/or agonist were then automatically pipetted into each test well, and the peak fluorescence intensity was recorded (lex, 488 nm; lem, 540 nm) by the FLIPR instrument (Molecular Devices) for approximately 5 min. To measure antagonist potency, cell plates were first incubated with the test compound and intracellular fluorescence recorded for 5 minutes to check a potential agonist effect of the test compound. Cell plates were quickly removed from the FLIPR instrument and incubated for additional 10 minutes at 37° C. before being moved back to the FLIPR instrument for Substance P (EC80) addition. The response was measured as the peak relative fluorescence change after agonist addition.
Compound relative %-effect was normalized to the maximal response evoked by 100 nM Aprepitant in presence of the EC80 of Substance P and the antagonist potency determined by non-linear regression using GraphPad Prism (version 5) or the four-parameter logistic model in XLfit (IDBS, Guilford, UK) for Microsoft Excel (Microsoft, Redmond, Wash.). The IC50 value is defined as the molar concentration of a test compound that produces a response midway between the fitted top and the fitted bottom. pIC50=−log IC50
Formula is listed as follows:
Fit (% Effect calculated)=(A+((B−A)/(1+((C/X)̂D)))) • A: bottom value • B: top value • C: test compound concentration • X: Relative IC50 • D: Hill slope coefficient
Ref: Sullivan E, Tucker E M, and Dale I L. Measurement of [Ca^2+] using the Fluorometric Imaging Plate Reader (FLIPR). Methods Mol Biol 114:125-133, 1999.
Compounds of the present invention were tested according to example 100.

[2] = Hepatic intrinsic clearance following incubation in human liver microsomes; format: in vitro ADME; conditions: 0.5 μM test compound, NADPH, 0-30 min, scaled to g liver
Method: Hepatic Extraction Ratio from Hepatic Intrinsic Clearance Following Incubation in Human Liver Microsomes
The general procedure consists of an automated incubation system and LC-MS/MS analysis with human liver microsomes. Human liver microsomes are thawed rapidly in a waterbath at 37° C. and kept on ice until use. The human liver microsomes are diluted with 50 mM potassium phosphate buffer pH 7.4 to a protein concentration of 0.55 mg/mL. Test compounds and positive controls (Verapamil and Dextromethorphan, positive controls for CYP3A4 for CYP2D6 isoforms, respectively) are dissolved in methanol (or other appropriate solvent, if necessary) in order to obtain a 5 mM solution which is further diluted to the concentration of 50 μM. The stock solutions are prepared immediately before the test.
5 μL of 50 μM test compounds and controls are added to 445 μL-of the 0.55 mg/mL microsomes solution and the incubation mixture are pre-warmed at 37° C. for 5 minutes. The incubation reactions are initiated by adding 50 μL of pre-warmed NADPH regenerating system to the incubation mixtures. 50 μL-aliquots will be taken from the incubation mixtures at: 0, 3, 6, 9, 15 and 30 minutes and the reactions are stopped by adding 100 μL of ACN containing Rolipram, used as generic Internal Standard (IS). Samples are then diluted with 120 μL of Milli-Q water and centrifuged at 3000 rpm for 10 minutes, prior the LC-MS/MS analysis.
The integrated peak areas for test compounds at the selected time points are divided by the respective peak areas of the IS and the percent of parent remaining is calculated by normalizing the peak area ratio of parent to IS at 0 min. Observed rate constant (kobs) for parent degradation is calculated by determining the slope of the line of the graph of the natural log of percentage parent remaining versus time of incubation. From the rate of depletion (min−1) and volume of the incubation (mL), clearance is estimated. This is scaled for the protein in the incubation relative to that in the intact liver, for all species (mL/min/g liver).
Values for the Human in vitro Clint are expressed as mL/min/g liver.
Assuming a liver weight of 25.7 g/kg and a liver blood flow of 20.7 mL/min/kg, the hepatic extraction ratio, Eh, can be derived from the Human in vitro Clint:
E.g. a Human in vitro Clint of 2.4 mL/min/g liver corresponds to a hepatic extraction ratio of 75%.
Some compounds of the present invention were tested according to example 101.

T1 sequence (P25103 whole entry): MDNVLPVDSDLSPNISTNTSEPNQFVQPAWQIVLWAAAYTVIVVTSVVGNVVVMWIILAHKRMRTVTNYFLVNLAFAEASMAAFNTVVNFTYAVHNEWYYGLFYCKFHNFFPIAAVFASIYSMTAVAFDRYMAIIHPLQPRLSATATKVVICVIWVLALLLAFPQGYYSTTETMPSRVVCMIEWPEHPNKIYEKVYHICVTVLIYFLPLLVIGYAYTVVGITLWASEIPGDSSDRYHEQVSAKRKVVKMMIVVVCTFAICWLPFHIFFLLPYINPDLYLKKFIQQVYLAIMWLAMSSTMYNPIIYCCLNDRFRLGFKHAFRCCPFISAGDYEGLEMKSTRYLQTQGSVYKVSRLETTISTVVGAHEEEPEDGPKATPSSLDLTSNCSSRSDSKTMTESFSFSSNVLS

| Structure (SMILES) | IC50 [1] [nM] | Human in vitro Clint [2] [mL/min/g] |
| --- | --- | --- |
| CCc1cc([C@@H](C)N(C)C(=O)N2CCN3C(=O)CC[C@H]3[C@@H]2c2cccc3c2CCC3)cc(C(F)(F)F)c1 [Compound 80, (1S,8aS)-1-(2,3-dihydro-1H-inden-4-yl)-N—((R)-1-(3-ethyl-5-(trifluoromethyl)phenyl)ethyl)-N-methyl-6-oxohexahydropyrrolo[1,2-a]pyrazine-2(1H)-carboxamide] | 0.79 | >200 |
| Cc1ccc(C2C3CCC(=O)N3CCN2C(=O)N(C)[C@H](C)c2cc(C(F)(F)F)cc(C(F)(F)F)c2)c(C)c1 (single isomer, unassigned) [Compound 2] | 7.79 | >200 |
| Cc1c(Cl)cccc1[C@H]1[C@@H]2CCC(=O)N2CCN1C(=O)N(C)[C@H](C)c1cc(C(F)(F)F)cc(C(F)(F)F)c1 [Compound 66, (1S,8aS)—N—((R)-1-(3,5-bis(trifluoromethyl)phenyl)ethyl)-1-(3-chloro-2-methylphenyl)-N-methyl-6-oxohexahydropyrrolo[1,2-a]pyrazine-2(1H)-carboxamide] | 0.14 | 51 |
| Cc1cc(O)ccc1[C@H]1[C@@H]2CC(CCO)(CCO)C(=O)N2CCN1C(=O)N(C)[C@H](C)c1cc(C(F)(F)F)cc(C(F)(F)F)c1 [Compound 30, (1S,8aS)—N—((R)-1-(3,5-bis(trifluoromethyl)phenyl)ethyl)-1-(4-hydroxy-2-methylphenyl)-7,7-bis(2-hydroxyethyl)-N-methyl-6-oxo-hexahydropyrrolo[1,2-a]pyrazine-2(1H)-carboxamide] | 0.116 | 18 |
| Cc1cc([C@@H](C)N(C)C(=O)N2CCN3C(=O)CC[C@H]3[C@@H]2c2ccsc2C)cc(C(F)(F)F)c1 [Compound 55, (1S,8aS)—N-methyl-N—((R)-1-(3-methyl-5-(trifluoromethyl)phenyl)ethyl)-1-(2-methylthiophen-3-yl)-6-oxohexahydropyrrolo[1,2-a]pyrazine-2(1H)-carboxamide] | 1.58 | >200 |
| Cc1ccc(C2C3CCC(=O)N3CCN2C(=O)N(C)[C@H](C)c2cc(C(F)(F)F)cc(C(F)(F)F)c2)c(C)c1 (single isomer, unassigned) [Compound 1] | 0.154 | >200 |
| C[C@H](c1cc(C(F)(F)F)cc(C(F)(F)F)c1)N(C)C(=O)N1CCN2C(=O)CC[C@H]2[C@@H]1c1cncs1 [Compound 59, (1R,8aS)—N—((R)-1-(3,5-bis(trifluoromethyl)phenyl)ethyl)-N-methyl-6-oxo-1-(thiazol-5-yl)-hexahydropyrrolo[1,2-a]pyrazine-2(1H)-carboxamide] | 29.4 | >200 |
| COc1ccc(C2C3CCC(=O)N3CCN2C(=O)N(C)[C@H](C)c2cc(C(F)(F)F)cc(C(F)(F)F)c2)c(C)c1 (single isomer, unassigned) [Compound 19] | 38.8 | >200 |
| Cc1cccc([C@H]2[C@@H]3CCC(=O)N3CCN2C(=O)N(C)[C@H](C)c2cc(C(C)C)cc(C(F)(F)F)c2)c1C [Compound 42] | 0.306 | >200 |
| COc1cccc([C@H]2[C@@H]3CCC(=O)N3CCN2C(=O)N(C)[C@H](C)c2cc(C(F)(F)F)cc(C(F)(F)F)c2)c1C [Compound 77, (1S,8aS)—N—((R)-1-(3,5-bis(trifluoromethyl)phenyl)ethyl)-1-(3-methoxy-2-methylphenyl)-N-methyl-6-oxohexahydropyrrolo[1,2-a]pyrazine-2(1H)-carboxamide] | 0.52 | >200 |
| CCc1cc([C@@H](C)N(C)C(=O)N2CCN3C(=O)CC[C@H]3[C@@H]2c2ccsc2C)cc(C(F)(F)F)c1 [Compound 56, (1S,8aS)—N—((R)-1-(3-ethyl-5-(trifluoromethyl)phenyl)ethyl)-N-methyl-1-(2-methylthiophen-3-yl)-6-oxohexahydropyrrolo[1,2-a]pyrazine-2(1H)-carboxamide] | 1.51 | >200 |
| Cc1cc([C@@H](C)N(C)C(=O)N2CCN3C(=O)CCC3C2c2ccc(C)cc2C)cc(C(F)(F)F)c1 (single isomer, unassigned) [Compound 4] | 9.26 | >200 |

Second part, the compound after the results:

| IC50 [1] [nM] | Human in vitro Clint [2] [mL/min/g] | Structure (SMILES) |
| --- | --- | --- |
| 0.08 | 30 | Cc1ccc(C)c([C@H]2[C@@H]3CC(CCO)(CCO)C(=O)N3CCN2C(=O)N(C)[C@H](C)c2cc(C(F)(F)F)cc(C(F)(F)F)c2)c1 [Compound 37, (1S,8aS)—N—((R)-1-(3,5-bis(trifluoromethyl)phenyl)ethyl)-1-(2,5-dimethylphenyl)-7,7-bis(2-hydroxyethyl)-N-methyl-6-oxo-hexahydropyrrolo[1,2-a]pyrazine-2(1H)-carboxamide] |
| 0.059 | 61 | CCc1cc([C@@H](C)N(C)C(=O)N2CCN3C(=O)C(CCO)(CCO)C[C@H]3[C@@H]2c2ccc(O)cc2C)cc(C(F)(F)F)c1 [Compound 31, (1S,8aS)—N—((R)-1-(3-ethyl-5-(trifluoromethyl)phenyl)ethyl)-1-(4-hydroxy-2-methylphenyl)-7,7-bis(2-hydroxyethyl)-N-methyl-6-oxohexahydropyrrolo[1,2-a]pyrazine-2(1H)-carboxamide] |
| 0.114 | >200 | COc1ccc([C@H]2[C@@H]3CC(CCO)(CCO)C(=O)N3CCN2C(=O)N(C)[C@H](C)c2cc(C(F)(F)F)cc(C(F)(F)F)c2)c(C)c1 [Compound 29, (1S,8aS)—N—((R)-1-(3,5-bis(trifluoromethyl)phenyl)ethyl)-7,7-bis(2-hydroxyethyl)-1-(4-methoxy-2-methylphenyl)-N-methyl-6-oxohexahydropyrrolo[1,2-a]pyrazine-2(1H)-carboxamide] |
| 0.094 | >200 | Cc1cc(F)ccc1C1C2CC(CCO)(CCO)C(=O)N2CCN1C(=O)N(C)[C@H](C)c1cc(C(F)(F)F)cc(C(F)(F)F)c1 (single isomer, unassigned) [Compound 14] |
| 0.054 | >200 | Cc1ccc([C@H]2[C@@H]3CC(CCO)(CCO)C(=O)N3CCN2C(=O)N(C)[C@H](C)c2cc(Cl)cc(C(F)(F)F)c2)c(C)c1 [Compound 34, (1S,8aS)—N—((R)-1-(3-chloro-5-(trifluoromethyl)phenyl)ethyl)-1-(2,4-dimethylphenyl)-7,7-bis(2-hydroxyethyl)-N-methyl-6-oxo-hexahydropyrrolo[1,2-a]pyrazine-2(1H)-carboxamide] |
| 0.034 | >200 | Cc1cc([C@@H](C)N(C)C(=O)N2CCN3C(=O)C(CCO)(CCO)CC3C2c2ccc(F)cc2C)cc(C(F)(F)F)c1 (single isomer, unassigned) [Compound 13] |
